ChEMBL document CHEMBL1134761, “A new concept for multidimensional selection of ligand conformations (MultiSelect) and multidimensional scoring (MultiScore) of protein-ligand binding affinities” (J Med Chem, 2001)

Assays:
[1] = molecular target: 72 kDa type IV collagenase (Homo sapiens, UniProt P08253); assay: Inhibitory constant against matrix metalloprotease-2
[2] = molecular target: Stromelysin-1 (Homo sapiens, UniProt P08254); assay: Inhibitory constant against matrix metalloprotease-3
[3] = molecular target: T1, Interstitial collagenase (Homo sapiens, UniProt P03956); assay: Inhibitory constant against matrix metalloprotease-1
T1 sequence (P03956 whole entry): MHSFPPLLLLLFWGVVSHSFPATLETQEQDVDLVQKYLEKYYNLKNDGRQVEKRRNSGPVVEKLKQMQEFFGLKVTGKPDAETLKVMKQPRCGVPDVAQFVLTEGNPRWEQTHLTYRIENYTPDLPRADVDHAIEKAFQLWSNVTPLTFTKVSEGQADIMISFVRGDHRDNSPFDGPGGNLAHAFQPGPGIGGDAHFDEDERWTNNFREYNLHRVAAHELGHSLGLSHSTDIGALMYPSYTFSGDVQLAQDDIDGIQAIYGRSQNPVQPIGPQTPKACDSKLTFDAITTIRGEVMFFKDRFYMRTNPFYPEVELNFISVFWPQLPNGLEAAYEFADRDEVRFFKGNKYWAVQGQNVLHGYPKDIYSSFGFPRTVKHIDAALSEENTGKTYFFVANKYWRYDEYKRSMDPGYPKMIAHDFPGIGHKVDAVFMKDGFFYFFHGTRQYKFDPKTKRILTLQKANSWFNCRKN

Stromelysin-1, sequence (P08254 whole entry): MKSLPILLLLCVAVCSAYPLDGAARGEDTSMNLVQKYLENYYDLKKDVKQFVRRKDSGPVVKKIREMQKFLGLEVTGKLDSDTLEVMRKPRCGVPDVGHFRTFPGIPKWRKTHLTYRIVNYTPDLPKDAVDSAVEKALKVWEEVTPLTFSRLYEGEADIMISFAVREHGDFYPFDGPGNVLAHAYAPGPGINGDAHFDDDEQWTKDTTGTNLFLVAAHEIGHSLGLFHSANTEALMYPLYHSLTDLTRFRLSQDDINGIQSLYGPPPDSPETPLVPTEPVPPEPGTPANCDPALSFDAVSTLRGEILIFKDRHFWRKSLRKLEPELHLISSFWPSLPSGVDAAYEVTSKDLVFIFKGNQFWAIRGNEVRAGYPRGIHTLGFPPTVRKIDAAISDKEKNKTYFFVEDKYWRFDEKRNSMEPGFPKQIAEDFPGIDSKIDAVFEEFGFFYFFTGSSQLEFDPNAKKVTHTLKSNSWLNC
72 kDa type IV collagenase, sequence (P08253 whole entry): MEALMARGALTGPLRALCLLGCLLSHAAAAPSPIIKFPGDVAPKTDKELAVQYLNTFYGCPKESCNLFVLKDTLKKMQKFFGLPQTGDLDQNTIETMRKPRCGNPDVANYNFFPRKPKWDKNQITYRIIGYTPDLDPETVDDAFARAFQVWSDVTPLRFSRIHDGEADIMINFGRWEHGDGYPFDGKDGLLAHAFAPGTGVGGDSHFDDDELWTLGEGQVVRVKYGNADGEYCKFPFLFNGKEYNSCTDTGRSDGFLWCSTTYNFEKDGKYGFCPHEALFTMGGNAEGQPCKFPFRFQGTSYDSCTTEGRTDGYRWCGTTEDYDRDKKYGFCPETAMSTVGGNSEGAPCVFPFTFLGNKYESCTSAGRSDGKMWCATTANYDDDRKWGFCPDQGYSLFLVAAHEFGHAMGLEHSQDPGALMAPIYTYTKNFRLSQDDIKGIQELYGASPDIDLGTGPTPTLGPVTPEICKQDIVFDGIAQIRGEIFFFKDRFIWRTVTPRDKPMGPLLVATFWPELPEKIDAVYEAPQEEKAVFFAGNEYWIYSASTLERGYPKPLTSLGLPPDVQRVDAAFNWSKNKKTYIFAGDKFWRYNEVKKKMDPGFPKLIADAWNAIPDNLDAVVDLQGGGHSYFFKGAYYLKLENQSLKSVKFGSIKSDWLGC

Ki [1] [nM] | Ki [2] [nM] | Ki [3] [nM] | SMILES
0.01 | 1.73 | 302 | O=C(C[C@@H](CCCc1ccc(Cl)cc1)C(=O)N[C@@H](CC1CCCCC1)C(=O)NCCC(=O)NCCNS(=O)(=O)N1CCOCC1)NO
0.03 | 2.75 | 385 | Cc1ccc(CCC[C@H](CC(=O)NO)C(=O)N[C@@H](CC2CCCCC2)C(=O)NCCC(=O)NCCNS(=O)(=O)N2CCOCC2)cc1
0.01 | 0.8 | 193 | O=C(O)CCNC(=O)CCNC(=O)[C@H](CC1CCCCC1)NC(=O)[C@H](CCCc1ccc(Cl)cc1)CC(=O)NO
 |  | 17000 | Cc1ccc(CCC[C@H](CP(=O)(O)O)C(=O)N[C@@H](CC2CCCCC2)C(=O)NCCc2ccccc2)cc1
0.01 | 6.35 | 382 | NS(=O)(=O)c1ccc(CCNC(=O)CCNC(=O)[C@H](CC2CCCCC2)NC(=O)[C@H](CCCc2ccc(Cl)cc2)CC(=O)NO)cc1
0.02 | 2.98 | 329 | Cc1ccc(CCC[C@H](CC(=O)NO)C(=O)N[C@@H](CC2CCCCC2)C(=O)NCCC(=O)NCCc2ccc(S(N)(=O)=O)cc2)cc1
0.03 | 2.39 | 313 | O=C(C[C@@H](CCCc1ccc(Cl)cc1)C(=O)N[C@@H](CC1CCCCC1)C(=O)NCCC(=O)NCCCCN1CCOCC1)NO
0.02 | 2.61 | 642 | Cc1ccc(CCC[C@H](CC(=O)NO)C(=O)N[C@@H](CC2CCCCC2)C(=O)NCCC(=O)NCCCCN2CCOCC2)cc1
0.02 | 1.38 | 319 | O=C(C[C@@H](CCCc1ccc(Cl)cc1)C(=O)N[C@@H](CC1CCCCC1)C(=O)NCCC(=O)NCCC(=O)N1CCOCC1)NO
0.03 | 5.87 | 313 | Cc1ccc(CCC[C@H](CC(=O)NO)C(=O)N[C@@H](CC2CCCCC2)C(=O)NCCC(=O)NCCCCN(C)C)cc1
0.01 | 6.26 | 455 | Cc1ccc(CCC[C@H](CC(=O)NO)C(=O)N[C@@H](CC2CCCCC2)C(=O)NCCC(=O)NCCN2CCOCC2)cc1
 | 1090 |  | NC(=O)CCCNC(=O)[C@H](CC1CCCCC1)NC(=O)[C@H](CCCc1ccccc1)CC(=O)O
0.05 | 22.2 | 1050 | CN(C)CCCCNC(=O)CCNC(=O)[C@H](CC1CCCCC1)NC(=O)[C@H](CCCc1ccc(Cl)cc1)CC(=O)NO
0.01 | 0.96 | 135 | COC(=O)CCNC(=O)CCNC(=O)[C@H](CC1CCCCC1)NC(=O)[C@H](CCCc1ccc(Cl)cc1)CC(=O)NO
0.59 | 81.5 | 942 | O=C(C[C@@H](CCCc1ccccc1)C(=O)N[C@@H](CC1CCCCC1)C(=O)NCCC(=O)NCCc1ccc(S(=O)(=O)O)cc1)NO

SMILES | Ki [1] [nM] | Ki [2] [nM] | Ki [3] [nM]
Cc1ccc(CCC[C@H](CC(=O)O)C(=O)N[C@@H](CC2CCCCC2)C(=O)NCCCCN2CCOCC2)cc1 |  | 1600 | 100000
COc1ccc(CCC[C@H](CC(=O)O)C(=O)N[C@@H](CC2CCCCC2)C(=O)NCCc2ccc(S(N)(=O)=O)cc2)cc1 |  |  | 100000
